The values that follow come from EPA's ToxValDB 9.5 (doi:10.2903/j.efsa.2013.3461).

The subject of one series is Rattus norvegicus. The following applies: for LD50: acute, oral, mortality.
The subject of the next series is Anas platyrhynchos. The note with it: short-term; oral; feed; mortality.
The next series deals with Bibionidae. The note with it: chronic/long-term; duration: 28 days; development.
A further series has as its system Daphnia magna. The following applies: chronic/long-term; duration: 21 days; reproduction.
The subject of the next series is Apis mellifera. The following applies: acute, duration: 48 hours, mortality.
In another series the test system is Canidae. The following applies: oral, Dog Other, hematological.

≈ marks a conversion by molar mass, not a printed value.

Broadly, the NOAEL is the highest tested level that showed no adverse finding.

Turning to `Cc1cc(C)cc(C(=O)N(NC(=O)c2ccc3c(c2C)C(O)CCO3)C(C)(C)C)c1` (configuration not stated) [Chromafenozide metabolite (M 010)], in the series with Rattus norvegicus, the LD50 is > 2000 mg/kg.
Consider `Cc1cc(C)cc(C(=O)N(NC(=O)c2ccc3c(c2C)CCCO3)C(C)(C)C)c1` [Chromafenozide], for which the LC50 was > 2160 mg/kg-day with Anas platyrhynchos; > 1840 mg/kg-day with Colinus virginianus (acute, oral, diet, mortality); 4.5 µg/mL (≈ 11.4 µM) in the series with Oncorhynchus mykiss (acute, duration: 96 hours, mortality); > 1000 mg/kg in the series with Tagia sp. (acute, duration: 14 days, mortality). For the same compound, the NOEC was 0.047 mg/kg with Bibionidae; 79 mg/kg-day in the series on Colinus virginianus (reproduction developmental, reproduction); 0.96 mg/L in the series with Oncorhynchus mykiss (chronic/long-term, duration: 28 days, growth); 0.84 mg/L in the series on Daphnia magna; 49 mg/kg with Tagia sp. (chronic/long-term, duration: 8 weeks, reproduction). The LD50 in the series with Colinus virginianus (acute, oral, mortality) was > 2000 mg/kg; in the series on Apis mellifera (dermal) it was > 100 µg/piece; in the series with Apis mellifera (oral, unspecified), > 133 µg/piece; with Rattus norvegicus, > 5000 mg/kg. Also, the NOAEL amounted to 27 mg/kg-day in the series with Canidae (chronic, duration: 52 weeks) and 52 mg/kg-day in the series with Canidae (subchronic, duration: 90 days). In the series on Rattus norvegicus (reproduction developmental, histopathology: nonneoplastic), the NOEL worked out at 128 mg/kg-day.
